Assay [1] has as its target Human BTK enzyme, wild-type (Homo sapiens (Human), UniProt Q06187). The experiment in a line: BTK Screening: Btk kinase activity, electrophoretic mobility shift assay (MSA). Format: biochemical. The settings on record: 0.5 nM BTK enzyme, 50 μM ATP, 15 minutes pre-incubation, 3 hours at 25° C. Here is the method:
Btk kinase activity was measured in vitro using an electrophoretic mobility shift assay (MSA). The ability of Btk to phosphorylate a fluorescent peptide substrate (FAM-GEEPLYWSFPAKKK-NH2) was measured. The kinase reactions were assembled in a total volume of 25 μL per well in 384 well plates. The following was added to each well: compound buffer (or control); enzyme buffer; and substrate buffer, as further described below.
Specifically the following was added: (1) compound buffer or control: 5μL of 5× compound buffer [(5× compound buffer comprised of: 1× Master Buffer, X μM test compound in 5% dimethyl sulfoxide; (2× Master Buffer comprised of 200 mM HEPES, pH7.5, 0.2% BSA, and 0.02% Triton X-100)]; and (2) enzyme buffer: 10 μL of 2.5× enzyme buffer (1× Master Buffer, 12.5 mM MgCl2, 2.5 mM DTT, 25 μM sodium orthovanadate, 25 μM beta-glycerophosphate, and 1.25 nM BTK enzyme). Human BTK enzyme Nanosyn-293HEK, wild-type, available from Nanosyn, Santa Clara, CA). Enzyme and compound were pre-incubated for 15 minutes. Additionally, the following was added: (3) substrate buffer: 10 μL of 2.5× substrate buffer (1× Master Buffer, […], and 2.5 μM of the peptide substrate FAM). Each plate was incubated at 25° C. for 3 hours. The reaction was terminated by adding to each well: 45 μL of 1.55× stop buffer (1× Master Buffer and 31 mM EDTA). The final reaction mixture was as follows: 100 mM HEPES, pH7.5; 0.1% BSA; 0.01% Triton X-100; 1 mM DTT; 5 mM MgCl2; 10 μM sodium orthovanadate; 10 μM beta-glycerophosphate; 50 μM ATP; 1% dimethyl sulfoxide (from compound); 1μM fluorescent peptide substrate and 0.5 nM BTK- enzyme. The terminated reactions were analyzed using a 12 channel LABCHIP® 3000 microfluidic detection instrument (available from Caliper Life Sciences, Waltham, MA). […] As substrate and product peptides were separated, two peaks of fluorescence were observed. Change in the relative fluorescence intensity of the substrate and product peaks was the parameter measured, reflecting enzyme activity. In the presence of an active compound, the ratio between product and substrate was altered. The signal of the product decreased, while the signal of the substrate increased. Capillary electrophoregrams (RDA acquisition files) were analyzed using HTS Well Analyzer software (available from Caliper Life Sciences, Waltham, MA).
Activity in each sample was determined as the product to sum ratio (PSR): P/(S+P), where P was the peak height of the product peptide and S was the peak height of the substrate peptide. For each compound, enzyme activity was measured at various concentrations (12 concentrations of compound spaced by 3× dilution intervals). Negative control samples (0% inhibition in the absence of an active compound) and positive control samples (100% inhibition, in the presence of 20 mM EDTA) were assembled in replicates of four and were used to calculate % inhibition values for each active compound at each concentration. Percent inhibition (Pinh) was determined using following equation: Pinh=(PSR0%−PSRinh)/(PSR0%−PSR100%)*100, where PSRinh was the product sum ratio in the presence of inhibitor, PSR0% was the average product sum ratio in the absence of active compound and PSR100% was the average product sum ratio in 100%-inhibition control samples.
The IC50 values of active compounds were determined by 4 parameter sigmoidal dose response model fitting of the inhibition curves (Pinh versus inhibitor concentration) using XLfit® 4 software (IDBS, Boston, MA). The IC50 values are reported in Table 2 in the BTK IC50 (nM) column.

The target of assay [2] is His-tagged Cereblon/DDB1 complex (Homo sapiens (Human), UniProt Q96SW2). The assay is described as follows: Cereblon Binding Assay (AlphaLISA Human Cereblon Binding Kit, competition). The settings on record: 10 μM top dose, biotin-labeled ligand competition; read-out: CRBN IC50. Here is the method:
Cereblon binding was measured in vitro using an AlphaLISA® Human Cereblon Binding Kit (PerkinElmer, Waltham, MA) according to the manufacturer's protocol (“Alpha” refers to Amplified Luminescent Proximity Homogeneous Assay). In this assay, donor beads and acceptor beads come into proximity through ligand binding to CRBN protein. Excitation of the donor beads provokes the release of singlet oxygen that triggers a cascade of energy transfer reactions to the acceptor beads, resulting in a sharp peak in light emission at 615 nm.
Specifically, nickel chelate acceptor beads (PerkinElmer AL108M) were used to capture a 6XHIS-tagged CRBN protein, and streptavidin-coated donor beads (PerkinElmer 6760002) were used to capture 50 nM biotinylated ligand. Each well included the following: sample or control; HIS-tagged CRBN protein; biotinylated ligand; nickel chelate acceptor beads; and streptavidin donor beads.
Competition Assay: Test compounds in 100% dimethyl sulfoxide were plated onto white, low volume 384 well plates (PerkinElmer Proxiplate 384 plus # 6008289) using an Labcyte Echo acoustic dispenser, in an 11-point dose curve and 3-fold dilution scheme. […] Plates were incubated for 30 minutes at room temperature.
Detection: 10 μL detection reagents were added in low light conditions containing nickel chelate acceptor beads and streptavidin donor beads (Perkin Elmer 6760002), resulting in a final concentration 20 ng/ml. Plates were incubated 1 hour and read on a PerkinElmerTM Envision™ plate reader (680 nm excitation and […] settings). The IC50 of each compound was determined by calculating percent inhibition from no drug and no protein controls, and the Ki of each compound was calculated using the Cheng-Prusoff transformation. From the IC50 values were determined. The IC50 values are reported in Table 2 in the CRBN IC50 (nM) column.

Assay [3] addresses BTK protein in human whole blood (Homo sapiens (Human), UniProt Q06187). The experiment in a line: Btk protein in human whole blood MSD ELISA based assay (Btk degradation). Format: cell-based. The note with it: human whole blood from healthy donors, 6 hours at 37° C., half maximal degradation concentration; read-out: hWB BTK DC50. Here is the method: Btk protein degradation was tested using an Meso Scale Discovery-ELISA system (MSD-ELISA): (1) Test compounds were added to human whole blood; (2) human whole blood cells treated with test compounds were lysed; (3) lysed cells were treated with capture antibody, an antibody to Btk; (4) lysed cells were treated with […] to Btk; and (5) lysed cells were treated with anti-mouse antibody (tagged).
Specifically, about 80 μl of fresh human whole blood from healthy donors was transferred into each well of a 96-well V-bottom plate (Costar, Cat No.3894). Using a TECANTM D300e Digital Dispenser (Tecan)), 1:4 serially diluted compounds [(8 pt assay) in DMSO solution (final 0.2%) starting at 3 μM top concentration], were added in duplicate. Thereafter, plates were placed in a 37° C. incubator and incubated for 6 hours.
At the end of incubation, 80 μl of 2× CST lysis buffer (Cell Signaling Technology, Cat No. 9803), prepared from a 10× stock solution, was added per well to lyse the blood. Plates were then sealed with a plate sealer and the samples were frozen overnight at −80° C.
Total amount of BTK protein remaining in the blood samples after compound treatment was measured using MSD-ELISA. After thawing the frozen plates, blood lysates were mixed thoroughly and transferred to small spot high-bind MSD plates (Meso Scale Discovery, Cat No. L45XB-3) and coated with capturing antibody, rabbit anti-human BTK (D3H5) (Cell Signaling Technology, Cat No. 8547CF). Thereafter, primary detection antibody, mouse anti-human BTK monoclonal antibody, (BD Biosciences, Cat No. 611117) and secondary detection antibody, anti-mouse SULFO-TAG (Meso Scale Discovery, Cat No. R32AC-1) were added. The assay plates were read on an MSD S600 plate reader by the addition of 2× MSD read buffer (Meso Scale Discovery, R92TC-1). All reagent transfers, including blood lysis, was conducted using a Biomed i7 liquid handler. From the dose response curves, DC50 values were calculated by averaging data from duplicate experiments. and Curve fitting was done by non-linear regression using GraphPad Prism. The DC50 values are reported in Table 2 in the hWB BTK DC50 (nM) column The Dmax values represent the maximum amount of BTK degradation observed upon compound treatment compared to DMSO only treated samples. The dMax (%) values are reported in Table 2 in the hWB BTK dMax (%) column.

pIC50: −log10 of the molar value.

`COC[C@H]1CN(CCc2ccc(N3CCC(=O)NC3=O)cc2)CCN1c1ccc(Nc2cc(-c3ccc([C@@H](C)NC(=O)c4nc(C(C)(C)C)no4)c(C)c3)ncn2)nc1` [Example 15, 3-tert-butyl-N-[(1R)-1-{4-[6-({5-[(2R)-4-{2-[4-(2,4-dioxo-1,3-diazinan-1-yl)phenyl]ethyl}-2-(methoxymethyl)piperazin-1-yl]pyridin-2-yl}amino)pyrimidin-4-yl]-2-methylphenyl}ethyl]-1,2,4-oxadiazole-5-carboxamide]: the pIC50 (usually the IC50 on a negative log10 scale, so that one unit is a factor of ten) in assay [1] is 10.01; in assay [2], no more than 5.00. In assay [3], the DC50 – broadly, the concentration giving 50% degradation – turned out to be 4.21 nM.

As for `C[C@@H](NC(=O)c1nc(C(C)(C)C)no1)c1ccc(-c2cc(Nc3ccc(N4CCN(CCc5ccc(N6CCC(=O)NC6=O)cc5)C[C@@H]4C)cn3)ncn2)cc1C(F)(F)F` [Example 16, 3-tert-butyl-N-[(1R)-1-{4-[6-({5-[(2S)-4-{2-[4-(2,4-dioxo-1,3-diazinan-1-yl)phenyl]ethyl}-2-methylpiperazin-1-yl]pyridin-2-yl}amino)pyrimidin-4-yl]-2-(trifluoromethyl)phenyl}ethyl]-1,2,4-oxadiazole-5-carboxamide], the pIC50 is 9.36 in assay [1] and no more than 5.00 in assay [2]. For the same molecule, the DC50 in assay [3] was 14.2 nM.

As to `C[C@@H](NC(=O)c1nc(C(C)(C)C)no1)c1ccc(-c2cc(Nc3ccc(N4CCN(CCc5ccc(N6CCC(=O)NC6=O)cc5)C[C@@H]4C)cn3)ncn2)cc1F` [Example 17, 3-tert-butyl-N-[(1R)-1-{4-[6-({5-[(2S)-4-{2-[4-(2,4-dioxo-1,3-diazinan-1-yl)phenyl]ethyl}-2-methylpiperazin-1-yl]pyridin-2-yl}amino)pyrimidin-4-yl]-2-fluorophenyl}ethyl]-1,2,4-oxadiazole-5-carboxamide], the results for the pIC50 in assay [1] and in assay [2] were 9.99 and 5.41, respectively. Further, in assay [3], the DC50 is 4.13 nM.

The values above are taken from US20240109877A1, “PYRIMIDINES FOR DEGRADING BRUTON'S TYROSINE KINASE” (AbbVie Inc., priority 2022, published 2024).
